According to patent US9884063B2, “Amido-substituted azole compounds” (Bayer Pharma Aktiengesellschaft, priority 2014, dated 2018):

Tests used:
TNKS1 = biological target: T1, TNKS1 (Homo sapiens, UniProt O95271); assay: Modified TNKS1 Assay 3 (BPS kit #80573, biotin-NAD+, 96 well); assay type: biochemical; details: human TNKS1, BPS kit #80573, 96 well
T1 sequence (O95271 1-1327): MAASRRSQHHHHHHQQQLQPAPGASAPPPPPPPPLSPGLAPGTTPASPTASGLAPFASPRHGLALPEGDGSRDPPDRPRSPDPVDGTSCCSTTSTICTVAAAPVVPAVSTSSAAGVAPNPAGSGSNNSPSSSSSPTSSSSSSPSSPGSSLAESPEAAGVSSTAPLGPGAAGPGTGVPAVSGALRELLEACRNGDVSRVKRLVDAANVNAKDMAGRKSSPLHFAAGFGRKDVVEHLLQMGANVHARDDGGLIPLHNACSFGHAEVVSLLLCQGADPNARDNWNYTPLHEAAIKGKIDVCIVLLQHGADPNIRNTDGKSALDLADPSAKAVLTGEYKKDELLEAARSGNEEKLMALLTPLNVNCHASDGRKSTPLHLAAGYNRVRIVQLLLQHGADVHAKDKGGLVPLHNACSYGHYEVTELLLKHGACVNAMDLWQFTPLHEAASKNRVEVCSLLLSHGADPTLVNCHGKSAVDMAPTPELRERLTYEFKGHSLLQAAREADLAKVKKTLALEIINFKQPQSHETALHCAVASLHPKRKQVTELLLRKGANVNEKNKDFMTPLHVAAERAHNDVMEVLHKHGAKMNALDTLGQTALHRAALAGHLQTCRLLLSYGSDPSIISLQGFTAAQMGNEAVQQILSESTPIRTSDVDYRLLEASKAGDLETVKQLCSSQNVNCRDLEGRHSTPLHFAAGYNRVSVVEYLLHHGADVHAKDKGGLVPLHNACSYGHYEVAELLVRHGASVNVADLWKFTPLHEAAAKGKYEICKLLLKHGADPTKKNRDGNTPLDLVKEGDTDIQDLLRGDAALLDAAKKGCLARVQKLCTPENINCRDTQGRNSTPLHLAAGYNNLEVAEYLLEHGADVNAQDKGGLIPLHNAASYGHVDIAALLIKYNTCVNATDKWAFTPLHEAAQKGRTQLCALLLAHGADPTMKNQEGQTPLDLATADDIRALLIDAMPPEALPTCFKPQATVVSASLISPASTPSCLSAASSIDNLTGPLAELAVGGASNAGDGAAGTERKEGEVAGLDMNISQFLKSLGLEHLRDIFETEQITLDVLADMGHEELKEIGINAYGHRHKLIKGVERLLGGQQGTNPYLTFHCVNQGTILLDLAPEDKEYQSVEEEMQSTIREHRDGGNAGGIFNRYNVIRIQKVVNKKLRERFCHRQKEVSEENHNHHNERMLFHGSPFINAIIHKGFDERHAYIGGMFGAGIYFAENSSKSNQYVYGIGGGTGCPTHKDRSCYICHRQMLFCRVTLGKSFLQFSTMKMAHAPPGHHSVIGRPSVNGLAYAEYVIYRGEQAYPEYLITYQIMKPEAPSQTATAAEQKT
Outline: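 Chemiluminescent assay of TNKS1-catalysed ribosylation of a protein substrate with biotin-labelled NAD+, detected via streptavidin-HRP; run per kit protocol. Inhibition lowers the signal, and IC50 is the compound concentration halving the normalised readout.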

[1] = system: HEK293 FOP control reporter cell line; assay: HEK293 FOP Assay (FOP control vector luciferase reporter); assay type: cell-based; details: Homo sapiens
Outline: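 Compound series 50 μM to 15 nM, 3.16-fold steps, were diluted in CAFTY buffer (pH 7.4, 2 mM Ca2+, 0.01% BSA) and tested alongside the TOP reporter line. Human Wnt-3a was added at 2500–5 ng/ml in two-fold steps. The control HEK293 line stably holds an FOP vector whose TCF elements are randomized and non-functional.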

[2] = HEK293 FOP control reporter cell line, 16 hours incubation, compound dilution series 50 μM to 15 nM
[3] = HEK293 FOP control reporter cells, 16 hours, luciferase, dilution series from 50 μM

Question: Which IC50 (TNKS1) does the source give for `COC(=O)c1nc[nH]c1C(=O)Nc1ccc(NC(=O)c2ccc(F)cc2Cl)cc1` [Example 13, Methyl 5-({4-[(2-chloro-4-fluorobenzoyl)amino]phenyl}carbamoyl)-1H-imidazole-4-carboxylate] here?
Answer: The IC50 was 60 nM.

Question: What about the IC50 [1, 2] of the same compound?
Answer: Its IC50 is 25000 nM.

Question: What about the IC50 [1, 3] of the same compound?
Answer: Its IC50 is 25000 nM.

Question: With `CN(C)CCNC(=O)c1ncoc1C(=O)Nc1ccc(NC(=O)c2ccc(F)cc2Cl)cc1` [Example 31, N^5-{4-[(2-chloro-4-fluorobenzoyl)amino]phenyl}-N^4-[2-(dimethylamino)ethyl]-1,3-oxazole-4,5-dicarboxamide] as the compound, how does the IC50 (TNKS1) read?
Answer: Its IC50 is 130 nM.

Question: And the IC50 [1, 3]?
Answer: Its IC50 is ≥ 50000 nM.

Question: How did the IC50 (TNKS1) turn out when `O=C(Nc1ccc(NC(=O)c2[nH]cnc2C(=O)NCCN2CCCCC2)cc1)c1ccc(F)cc1` [Example 33, N^4-{4-[(4-fluorobenzoyl)amino]phenyl}-N^5-[2-(piperidin-1-yl)ethyl]-1H-imidazole-4,5-dicarboxamide] was run?
Answer: The IC50 was > 500 nM.

Question: And the IC50 [1, 3]?
Answer: Its IC50 is ≥ 50000 nM.

Question: What does the source list for `CNC(=O)c1nc[nH]c1C(=O)Nc1ccc(NC(=O)c2c(C)cc(C)cc2C)cc1` [Example 35, N^5-{4-[(mesitylcarbonyl)amino]phenyl}-N^4-methyl-1H-imidazole-4,5-dicarboxamide]?
Answer: IC50 (TNKS1): > 500 nM; IC50 [1, 3]: ≥ 50000 nM

Question: What does the source list for `CNC(=O)c1nc[nH]c1C(=O)Nc1ccc(NC(=O)c2ccccc2Br)cc1` [Example 37, N^5-{4-[(2-bromobenzoyl)amino]phenyl}-N^4-methyl-1H-imidazole-4,5-dicarboxamide]?
Answer: IC50 (TNKS1): 330 nM; IC50 [1, 2]: 20000 nM; IC50 [1, 3]: 20000 nM

Question: `O=C(Nc1ccc(NC(=O)c2[nH]cnc2C(=O)NC2CC2)cc1)c1ccc(F)cc1Cl` [Example 45, N^5-{4-[(2-chloro-4-fluorobenzoyl)amino]phenyl}-N^4-cyclopropyl-1H-imidazole-4,5-dicarboxamide] was tested. Which IC50 (TNKS1) did it give?
Answer: The IC50 was 70 nM.

Question: What about the IC50 [1, 2] of the same compound?
Answer: The IC50 was 40000 nM.

Question: `O=C(Nc1ccc(NC(=O)c2[nH]cnc2C(=O)NCCC2CC2)cc1)c1cc(F)c(F)cc1Cl` [Example 49, N^5-{4-[(2-chloro-4,5-difluorobenzoyl)amino]phenyl}-N^4-(2-cyclopropylethyl)-1H-imidazole-4,5-dicarboxamide] was tested. Which IC50 (TNKS1) did it give?
Answer: Its IC50 is > 500 nM.

Question: What about the IC50 [1, 2] of the same compound?
Answer: Its IC50 is 17000 nM.

Question: For `O=C(Nc1ccc(NC(=O)c2[nH]cnc2C(=O)NCCN2CCCCC2)cc1)c1cc(OC(F)(F)F)ccc1Br` [Example 63, N^5-(4-{[2-bromo-5-(trifluoromethoxy)benzoyl]amino}phenyl)-N^4-[2-(piperidin-1-yl)ethyl]-1H-imidazole-4,5-dicarboxamide], which IC50 (TNKS1) is on record?
Answer: Its IC50 is 70 nM.

Question: And the IC50 [1, 2]?
Answer: Its IC50 is 11000 nM.

Question: Which results are given for `CNC(=O)c1[nH]c(C)nc1C(=O)Nc1ccc(NC(=O)c2ccc(F)cc2Cl)cc1` [Example 65, N^4-{4-[(2-chloro-4-fluorobenzoyl)amino]phenyl}-N^5,2-dimethyl-1H-imidazole-4,5-dicarboxamide]?
Answer: IC50 (TNKS1): 160 nM; IC50 [1, 2]: 9500 nM

Question: `O=C(Nc1ccc(NC(=O)c2[nH]cnc2C(=O)NCCN2CCCCC2)cc1F)c1ccc(F)cc1Cl` [Example 74, N^5-{4-[(2-chloro-4-fluorobenzoyl)amino]-3-fluorophenyl}-N^4-[2-(piperidin-1-yl)ethyl]-1H-imidazole-4,5-dicarboxamide] was tested. Which IC50 (TNKS1) did it give?
Answer: The IC50 was 2 nM.

Question: And the IC50 [1, 2]?
Answer: Its IC50 is 14000 nM.

Question: With `O=C(Nc1ccc(NC(=O)c2[nH]cnc2C(=O)NCCN2CCCCC2)cc1F)c1ccccc1Cl` [Example 82, N^5-{4-[(2-chlorobenzoyl)amino]-3-fluorophenyl}-N^4-[2-(piperidin-1-yl)ethyl]-1H-imidazole-4,5-dicarboxamide] as the compound, how does the IC50 (TNKS1) read?
Answer: Its IC50 is 10 nM.

Question: What about the IC50 [1, 2] of the same compound?
Answer: Its IC50 is 44000 nM.

Question: With `COc1cc(NC(=O)c2[nH]cnc2C(=O)NCCN2CCCCC2)ccc1NC(=O)c1ccc(F)cc1Cl` [Example 97, N^5-{4-[(2-chloro-4-fluorobenzoyl)amino]-3-methoxyphenyl}-N^4-[2-(piperidin-1-yl)ethyl]-1H-imidazole-4,5-dicarboxamide] as the compound, how does the IC50 (TNKS1) read?
Answer: The IC50 was 90 nM.

Question: What about the IC50 [1, 2] of the same compound?
Answer: Its IC50 is 29000 nM.

Question: What does the source list for `COc1cc(NC(=O)c2[nH]cnc2C(=O)NCCN2CCCCC2)ccc1NC(=O)c1ccccc1Cl` [Example 101, N^5-{4-[(2-chlorobenzoyl)amino]-3-methoxyphenyl}-N^4-[2-(piperidin-1-yl)ethyl]-1H-imidazole-4,5-dicarboxamide]?
Answer: IC50 (TNKS1): 40 nM; IC50 [1, 2]: 29000 nM

Question: `CC(C)[C@@H](C)NC(=O)c1[nH]cnc1C(=O)Nc1ccc(NC(=O)c2ccc(F)cc2Cl)cc1` [Example 134, N^4-{4-[(2-chloro-4-fluorobenzoyl)amino]phenyl}-N^5-[(2R)-3-methylbutan-2-yl]-1H-imidazole-4,5-dicarboxamide] was tested. Which IC50 (TNKS1) did it give?
Answer: The IC50 was 360 nM.

Question: What about the IC50 [1, 2] of the same compound?
Answer: Its IC50 is 6300 nM.

Question: Which IC50 (TNKS1) does the source give for `O=C(Nc1ccc(NC(=O)c2nc[nH]c2C(=O)NCC2CCOC2)cc1)c1ccc(F)cc1Cl` (stereo not shown) [Example 235, N^4-{4-[(2-chloro-4-fluorobenzoyl)amino]phenyl}-N^5-(tetrahydrofuran-3-ylmethyl)-1H-imidazole-4,5-dicarboxamide] here?
Answer: The IC50 was 270 nM.

Question: With `O=C(Nc1ccc(NC(=O)c2nc[nH]c2C(=O)NCC2CCCO2)cc1)c1ccc(F)cc1Cl` (stereo not shown) [Example 237, N^4-{4-[(2-chloro-4-fluorobenzoyl)amino]phenyl}-N^5-(tetrahydrofuran-2-ylmethyl)-1H-imidazole-4,5-dicarboxamide] as the compound, how does the IC50 (TNKS1) read?
Answer: The IC50 was > 500 nM.

Question: With `CNC(=O)c1nc[nH]c1C(=O)Nc1ccc(NC(=O)c2ccc(OC)cc2Cl)cc1` [Example 246, N^5-{4-[(2-chloro-4-methoxybenzoyl)amino]phenyl}-N^4-methyl-1H-imidazole-4,5-dicarboxamide] as the compound, how does the IC50 (TNKS1) read?
Answer: Its IC50 is > 500 nM.

Question: How did the IC50 (TNKS1) turn out when `O=C(Nc1ccc(NC(=O)c2nc[nH]c2C(=O)NCCN2CCC[C@H](O)C2)cc1)c1ccc(F)cc1Cl` [Example 271, N^4-{4-[(2-chloro-4-fluorobenzoyl)amino]phenyl}-N^5-{2-[(3S)-3-hydroxypiperidin-1-yl]ethyl}-1H-imidazole-4,5-dicarboxamide] was run?
Answer: The IC50 was 6 nM.

Question: With `CC(C)(N)CNC(=O)c1[nH]cnc1C(=O)Nc1ccc(NC(=O)c2ccc(F)cc2Cl)cc1` [Example 280, N^5-(2-amino-2-methylpropyl)-N^4-{4-[(2-chloro-4-fluorobenzoyl)amino]phenyl}-1H-imidazole-4,5-dicarboxamide] as the compound, how does the IC50 (TNKS1) read?
Answer: The IC50 was 60 nM.

Question: With `CC(C)(N)CCNC(=O)c1[nH]cnc1C(=O)Nc1ccc(NC(=O)c2ccc(F)cc2Cl)cc1` [Example 286, N^5-(3-amino-3-methylbutyl)-N^4-{4-[(2-chloro-4-fluorobenzoyl)amino]phenyl}-1H-imidazole-4,5-dicarboxamide] as the compound, how does the IC50 (TNKS1) read?
Answer: Its IC50 is 70 nM.

Question: How did the IC50 (TNKS1) turn out when `CNCCNC(=O)c1[nH]cnc1C(=O)Nc1ccc(NC(=O)c2ccc(F)cc2Cl)cc1` [Example 287, N^4-{4-[(2-chloro-4-fluorobenzoyl)amino]phenyl}-N^5-[2-(methylamino)ethyl]-1H-imidazole-4,5-dicarboxamide] was run?
Answer: The IC50 was 80 nM.

Question: How did the IC50 (TNKS1) turn out when `CC(C)NCCNC(=O)c1[nH]cnc1C(=O)Nc1ccc(NC(=O)c2ccc(F)cc2Cl)cc1` [Example 288, N^4-{4-[(2-chloro-4-fluorobenzoyl)amino]phenyl}-N^5-[2-(isopropylamino)ethyl]-1H-imidazole-4,5-dicarboxamide] was run?
Answer: Its IC50 is 30 nM.

Question: With `CNC(=O)c1nc[nH]c1C(=O)Nc1ccc(NC(=O)c2ccc(C#N)cc2F)cc1` [Example 369, N^5-{4-[(4-cyano-2-fluorobenzoyl)amino]phenyl}-N^4-methyl-1H-imidazole-4,5-dicarboxamide] as the compound, how does the IC50 (TNKS1) read?
Answer: The IC50 was 260 nM.

Question: With `CN1CCC(CNC(=O)c2nc[nH]c2C(=O)Nc2ccc(NC(=O)c3ccc(F)cc3Cl)cc2)C1` (stereo not shown) [Example 407, N^5-{4-[(2-chloro-4-fluorobenzoyl)amino]phenyl}-N^4-[(1-methylpyrrolidin-3-yl)methyl]-1H-imidazole-4,5-dicarboxamide] as the compound, how does the IC50 (TNKS1) read?
Answer: The IC50 was 10 nM.
